The record followed here is patent publication EP0392663A1, “Carboline derivative as a 5-HT3 receptor antagonist” (ONO PHARMACEUTICAL CO., LTD., priority 1989, dated 1990).

Structures can show the parent of a compound that is named as a salt.

For one series, the system named is 5-HT₃ receptor. The experiment in a line: Suppression of 5-HT-induced reflex bradycardia in urethane-anesthetized rats (5-HT₃ receptor antagonism in vivo). Also on record: species or system Male Wistar rats. As to conditions: 5-HT i.v. 2 mins after. How it is done: Male Wistar rats were urethane-anesthetized and fixed. Cannulas were inserted to carotid artery and thigh vein as used for the recording of blood pressure end heart beat, and for the administration of compounds, respectively.
Several amounts of compound of the present invention were administered to the vein or duodenum. 5-HT was administered rapidly to the vein, 2 mins after. The suppression effect of the compounds was confirmed by the measurement of reflex bradycardia generated. (Nature 316, 11 (1985).)

A short description of series [1]: Acute toxicity (LD₅₀) in mice. Conditions: mouse, in vivo. As to the method: It was confirmed that the toxicity of the compounds of the present invention were very low. Therefore, the compounds of the present invention may be considered to be sufficiently safe and suitable for pharmaceutical use.
For example, the values of acute toxicity (LD₅₀) of 2-(5-methylimidazol-4-ylmethyl)-5-methyl-1,2-dihydro-γ--carbolin-1-one hydrochloride was 290 mg/kg animal body weight by oral administration and 48 mg/kg animal body weight by intravenous administration in mice, respectively.

The molecule `Cc1[nH]cnc1Cn1ccc2c(c1=O)c1ccccc1n2C` [2-(5-methylimidazol-4-ylmethyl)-5-methyl-1,2-dihydro-γ-carbolin-1-one hydrochloride] registered an ID₅₀ i.d. in the series with 5-HT₃ receptor (compound administered to the duodenum) of 7.7 mg/kg. Also, the ID₅₀ i.v. in the series on 5-HT₃ receptor (compound administered to the vein) came out at 0.3 mg/kg. For the same molecule, the LD50 was determined as 48 mg/kg in series [1] (intravenous administration) and 290 mg/kg in series [1] (oral administration).
